In patent publication US7915291B2, “Hepatitis C virus inhibitors” (Bristol-Myers Squibb Company, priority 2002, dated 2011):

How the values were obtained:
[1] = target: T1, HCV NS3/4A protease complex, J4L6S strain (Hepatitis C virus genotype 1b, UniProt O92972, C1454S/C1711G); experiment: Recombinant HCV NS3/4A protease complex FRET peptide assay (J4L6S strain); type: biochemical, HCV genotype 1b
T1 construct: recombinant HCV NS3/4A protease complex (amino acids 1027 to 1711); inferred from pET21b vector and Ni-NTA purification; made in house; host or cells: Escherichia coli BL21 (DE3), pET21b
Text: Recombinant HCV NS3/4A Protease Complex FRET Peptide Assay
The purpose of this in vitro assay was to measure the inhibition of HCV NS3 protease complexes, derived from the BMS, H77C or J416S strains, as described below, by compounds of the present invention. This assay provides an indication of how effective compounds of the present invention would be in inhibiting HCV proteolytic activity.
Serum from an HCV-infected patient was obtained from Dr. T. Wright, San Francisco Hospital. An engineered full-length cDNA (compliment deoxyribonucleic acid) template of the HCV genome (BMS strain) was constructed from DNA fragments obtained by reverse transcription-PCR(RT-PCR) of serum RNA (ribonucleic acid) and using primers selected on the basis of homology between other genotype 1a strains. From the determination of the entire genome sequence, a genotype 1a was assigned to the HCV isolate according to the classification of Simmonds et al. (See P Simmonds, Kans. Rose, S Graham, S W Chan, F McOmish, B C Dow, E A Follett, P L Yap and H Marsden, J. Clin. Microbiol., 31(6), 1493-1503 (1993)). […]

[2] = target: T2, human pancreatic chymotrypsin (Homo sapiens, UniProt P17538); experiment: Specificity assay, chymotrypsin; type: biochemical; details: 2 hr pre-incubation
T2 construct: purchased Sigma
Procedure: (§1) The specificities of compounds of the present invention were determined against a variety of serine proteases: human leukocyte elastase (HLE), porcine pancreatic elastase (PPE) and human pancreatic chymotrypsin and one cysteine protease: human liver cathepsin B. In all cases a 96-well plate format protocol using colorimetric p -nitroaniline (pNA) substrate specific for each enzyme was used as described previously (Patent WO 00/09543) with some modifications to the serine protease assays. All enzymes were purchased from Sigma while the substrates were from Bachem.
(§2) Each assay included a 2 hr enzyme-inhibitor pre-incubation at RT followed by addition of substrate and hydrolysis to ˜30% conversion as measured on a Spectramax Pro microplate reader. Compound concentrations varied from 100 to 0.4 μM depending on their potency. […]
(§3) The percentage of inhibition was calculated using the formula: [1−((UVinh−UVblank)/(UVctl−UVblank))]×100 […]

human liver cathepsin B = target: T3, human liver cathepsin B (Homo sapiens, UniProt P07858); experiment: Specificity assay, cathepsin B; type: biochemical; details: 2 hr pre-incubation
T3 construct: purchased Sigma; host or cells: human liver (as named)
Procedure: as §1, §2, §3

T1 sequence (O92972 1027-1711 C1454S/C1711G, one chain of several): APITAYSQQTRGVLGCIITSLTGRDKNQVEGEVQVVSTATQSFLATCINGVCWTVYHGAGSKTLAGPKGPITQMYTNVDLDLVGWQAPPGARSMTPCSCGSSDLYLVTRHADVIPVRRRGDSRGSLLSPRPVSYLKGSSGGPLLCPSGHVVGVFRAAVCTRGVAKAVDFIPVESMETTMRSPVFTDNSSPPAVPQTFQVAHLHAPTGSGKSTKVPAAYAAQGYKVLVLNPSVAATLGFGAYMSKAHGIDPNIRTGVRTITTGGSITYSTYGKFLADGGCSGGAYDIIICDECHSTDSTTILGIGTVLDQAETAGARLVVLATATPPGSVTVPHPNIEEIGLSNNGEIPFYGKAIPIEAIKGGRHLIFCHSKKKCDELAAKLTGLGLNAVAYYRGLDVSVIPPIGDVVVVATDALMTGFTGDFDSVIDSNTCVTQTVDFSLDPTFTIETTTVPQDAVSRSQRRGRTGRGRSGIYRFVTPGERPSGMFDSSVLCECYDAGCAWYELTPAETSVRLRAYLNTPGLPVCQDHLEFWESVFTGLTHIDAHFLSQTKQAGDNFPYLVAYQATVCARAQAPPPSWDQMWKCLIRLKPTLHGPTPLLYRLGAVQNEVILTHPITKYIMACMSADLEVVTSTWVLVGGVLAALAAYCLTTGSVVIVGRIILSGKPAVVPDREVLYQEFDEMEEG
T2 sequence (P17538 19-263): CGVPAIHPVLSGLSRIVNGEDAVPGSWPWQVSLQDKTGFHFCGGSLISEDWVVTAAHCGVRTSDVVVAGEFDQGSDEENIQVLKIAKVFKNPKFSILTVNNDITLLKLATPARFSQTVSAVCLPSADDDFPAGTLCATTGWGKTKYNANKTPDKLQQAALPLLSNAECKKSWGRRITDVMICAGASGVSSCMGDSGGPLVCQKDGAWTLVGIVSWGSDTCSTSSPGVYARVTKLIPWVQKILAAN

`C=C[C@@H]1C[C@]1(NC(=O)[C@@H]1C[C@@H](Oc2nc(C3CC3)cc3ccccc23)CN1C(=O)[C@@H](NC(=O)OC(C)(C)C)C(C)(C)C)C(=O)NS(=O)(=O)C1CC1` [Compound 34] showed an IC50 [1] of 0.0029 µM, an IC50 [2] of over 200 µM and an IC50 (human liver cathepsin B) of over 200 µM.
